The target in the test is TYK2 (Homo sapiens, UniProt P29597). Put plainly: TYK2 protein degradation in MOLT-4 cells by immunoblotting. It counts as cell-based. Details: endogenous in cells; host or cells: MOLT-4. The note with it: MOLT-4 cells, 24 hours. In short, it runs like this:
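Percent TYK2 degradation came from densitometry of chemiluminescent immunoblots of RIPA lysates. Before lysis, MOLT-4 cells had been treated for 24 h with each compound at 0.5 or 5 μM.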

Sequence of TYK2 (P29597 whole entry): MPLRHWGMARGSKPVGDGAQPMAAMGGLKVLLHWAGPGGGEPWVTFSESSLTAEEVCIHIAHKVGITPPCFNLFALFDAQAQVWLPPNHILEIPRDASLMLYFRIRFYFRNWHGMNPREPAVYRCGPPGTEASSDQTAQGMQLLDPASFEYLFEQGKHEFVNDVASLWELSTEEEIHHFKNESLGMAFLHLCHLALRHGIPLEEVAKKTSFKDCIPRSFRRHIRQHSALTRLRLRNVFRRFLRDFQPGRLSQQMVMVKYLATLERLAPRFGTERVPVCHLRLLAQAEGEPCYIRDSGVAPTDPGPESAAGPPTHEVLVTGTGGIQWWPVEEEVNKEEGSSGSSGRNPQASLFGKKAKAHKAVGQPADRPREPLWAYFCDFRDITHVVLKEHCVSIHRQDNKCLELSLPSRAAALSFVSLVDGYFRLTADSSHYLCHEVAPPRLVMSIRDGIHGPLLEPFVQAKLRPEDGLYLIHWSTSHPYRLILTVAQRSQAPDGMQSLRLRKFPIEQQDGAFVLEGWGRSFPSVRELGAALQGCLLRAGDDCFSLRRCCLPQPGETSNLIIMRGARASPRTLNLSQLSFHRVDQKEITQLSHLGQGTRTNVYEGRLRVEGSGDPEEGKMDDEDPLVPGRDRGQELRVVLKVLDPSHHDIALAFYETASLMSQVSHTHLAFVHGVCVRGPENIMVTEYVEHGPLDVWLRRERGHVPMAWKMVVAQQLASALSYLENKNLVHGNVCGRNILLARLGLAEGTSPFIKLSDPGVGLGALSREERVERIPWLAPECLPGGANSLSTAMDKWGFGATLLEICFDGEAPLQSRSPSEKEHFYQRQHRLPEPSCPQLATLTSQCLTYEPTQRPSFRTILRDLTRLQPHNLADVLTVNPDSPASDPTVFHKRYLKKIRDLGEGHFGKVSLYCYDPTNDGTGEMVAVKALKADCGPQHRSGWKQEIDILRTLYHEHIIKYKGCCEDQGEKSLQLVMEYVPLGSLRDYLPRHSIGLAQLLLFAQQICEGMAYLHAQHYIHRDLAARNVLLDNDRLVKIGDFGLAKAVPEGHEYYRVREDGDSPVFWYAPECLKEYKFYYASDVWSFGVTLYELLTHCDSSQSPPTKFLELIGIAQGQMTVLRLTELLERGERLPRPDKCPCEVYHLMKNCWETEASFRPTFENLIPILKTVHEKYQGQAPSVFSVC

With `CNC(=O)c1nnc(NC(=O)CNC(=O)CCCCCNc2ccc3c(c2)C(=O)N(C2CCC(=O)NC2=O)C3=O)cc1Nc1cccc(-c2ncn(C)n2)c1OC` (stereo not drawn) [CPD-058, 6-(2-(6-((2-(2,6-Dioxopiperidin-3-yl)-1,3-dioxoisoindolin-5-yl)amino)hexanamido)acetamido)-4-((2-methoxy-3-(1-methyl-1H-1,2,4-triazol-3-yl)phenyl)amino)-N-methylpyridazine-3-carboxamide], the “TYK2 Degradation (0.5 μM)” value is given as at most 20% and the “TYK2 Degradation (5 μM)” value is on record as at most 20%.

As to `CNC(=O)c1nnc(NC(=O)CNC(=O)CCCCCCNc2ccc3c(c2)C(=O)N(C2CCC(=O)NC2=O)C3=O)cc1Nc1cccc(-c2ncn(C)n2)c1OC` (stereo not drawn) [CPD-059, 6-(2-(7-((2-(2,6-Dioxopiperidin-3-yl)-1,3-dioxoisoindolin-5-yl)amino)heptanamido)acetamido)-4-((2-methoxy-3-(1-methyl-1H-1,2,4-triazol-3-yl)phenyl)amino)-N-methylpyridazine-3-carboxamide], the “TYK2 Degradation (0.5 μM)” value was at most 20% and the “TYK2 Degradation (5 μM)” value is listed as at most 20%.

As to `CNC(=O)c1nnc(NC(=O)CNC(=O)CCCCCCCNc2ccc3c(c2)C(=O)N(C2CCC(=O)NC2=O)C3=O)cc1Nc1cccc(-c2ncn(C)n2)c1OC` (stereo not drawn) [CPD-060, 6-(2-(8-((2-(2,6-Dioxopiperidin-3-yl)-1,3-dioxoisoindolin-5-yl)amino)octanamido)acetamido)-4-((2-methoxy-3-(1-methyl-1H-1,2,4-triazol-3-yl)phenyl)amino)-N-methylpyridazine-3-carboxamide], the “TYK2 Degradation (0.5 μM)” value is at most 20% and the “TYK2 Degradation (5 μM)” value is given as at most 20%.

Turning to `CNC(=O)c1nnc(NC(=O)CNC(=O)CCOCCNc2ccc3c(c2)C(=O)N(C2CCC(=O)NC2=O)C3=O)cc1Nc1cccc(-c2ncn(C)n2)c1OC` (stereo not drawn) [CPD-061, 6-(2-(3-(2-((2-(2,6-Dioxopiperidin-3-yl)-1,3-dioxoisoindolin-5-yl)amino)ethoxy)propanamido)acetamido)-4-((2-methoxy-3-(1-methyl-1H-1,2,4-triazol-3-yl)phenyl)amino)-N-methylpyridazine-3-carboxamide], the “TYK2 Degradation (0.5 μM)” value is listed as at most 20% and the “TYK2 Degradation (5 μM)” value is on record as at most 20%.

For `CNC(=O)c1nnc(NC(=O)CNC(=O)CCOCCOCCNc2ccc3c(c2)C(=O)N(C2CCC(=O)NC2=O)C3=O)cc1Nc1cccc(-c2ncn(C)n2)c1OC` (stereo not drawn) [CPD-062, 6-(2-(3-(2-(2-((2-(2,6-Dioxopiperidin-3-yl)-1,3-dioxoisoindolin-5-yl)amino)ethoxy)ethoxy)propanamido)acetamido)-4-((2-methoxy-3-(1-methyl-1H-1,2,4-triazol-3-yl)phenyl)amino)-N-methylpyridazine-3-carboxamide], the “TYK2 Degradation (0.5 μM)” value is recorded as at most 20% and the “TYK2 Degradation (5 μM)” value is at most 20%.

On to `CNC(=O)c1nnc(NC(=O)CNC(=O)CCOCCOCCOCCNc2ccc3c(c2)C(=O)N(C2CCC(=O)NC2=O)C3=O)cc1Nc1cccc(-c2ncn(C)n2)c1OC` (stereo not drawn) [CPD-063, 6-(1-((2-(2,6-Dioxopiperidin-3-yl)-1,3-dioxoisoindolin-5-yl)amino)-12-oxo-3,6,9-trioxa-13-azapentadecan-15-amido)-4-((2-methoxy-3-(1-methyl-1H-1,2,4-triazol-3-yl)phenyl)amino)-N-methylpyridazine-3-carboxamide], for which the “TYK2 Degradation (0.5 μM)” value is given as at most 20% and the “TYK2 Degradation (5 μM)” value is recorded as 30%.

For `CNC(=O)c1nnc(NC(=O)CNC(=O)CCOCCOCCOCCOCCNc2ccc3c(c2)C(=O)N(C2CCC(=O)NC2=O)C3=O)cc1Nc1cccc(-c2ncn(C)n2)c1OC` (stereo not drawn) [CPD-064, 6-(1-((2-(2,6-Dioxopiperidin-3-yl)-1,3-dioxoisoindolin-5-yl)amino)-15-oxo-3,6,9,12-tetraoxa-16-azaoctadecan-18-amido)-4-((2-methoxy-3-(1-methyl-1H-1,2,4-triazol-3-yl)phenyl)amino)-N-methylpyridazine-3-carboxamide], the “TYK2 Degradation (0.5 μM)” value is listed as at most 20% and the “TYK2 Degradation (5 μM)” value was at most 20%.

Consider `CNC(=O)c1nnc(NC(=O)CNC(=O)CCOCCOCCOCCOCCOCCNc2ccc3c(c2)C(=O)N(C2CCC(=O)NC2=O)C3=O)cc1Nc1cccc(-c2ncn(C)n2)c1OC` (stereo not drawn) [CPD-065, 6-(1-((2-(2,6-Dioxopiperidin-3-yl)-1,3-dioxoisoindolin-5-yl)amino)-18-oxo-3,6,9,12,15-pentaoxa-19-azahenicosan-21-amido)-4-((2-methoxy-3-(1-methyl-1H-1,2,4-triazol-3-yl)phenyl)amino)-N-methylpyridazine-3-carboxamide], for which the “TYK2 Degradation (0.5 μM)” value is at most 20% and the “TYK2 Degradation (5 μM)” value was at most 20%.

For `CNC(=O)c1nnc(NC(=O)C2CC2)cc1Nc1cccc(-c2ncn(CCNC(=O)COCC(=O)N[C@H](C(=O)N3C[C@H](O)C[C@H]3C(=O)NCc3ccc(-c4scnc4C)cc3)C(C)(C)C)n2)c1OC` [CPD-066, 6-(Cyclopropanecarboxamido)-4-((3-(1-(2-(2-(2-(((S)-1-((2S,4R)-4-hydroxy-2-((4-(4-methylthiazol-5-yl)benzyl)carbamoyl)pyrrolidin-1-yl)-3,3-dimethyl-1-oxobutan-2-yl)amino)-2-oxoethoxy)acetamido)ethyl)-1H-1,2,4-triazol-3-yl)-2-methoxyphenyl)amino)-N-methylpyridazine-3-carboxamide], the “TYK2 Degradation (0.5 μM)” value is at most 20% and the “TYK2 Degradation (5 μM)” value was at most 20%.

With `CNC(=O)c1nnc(NC(=O)C2CC2)cc1Nc1cccc(-c2ncn(CCNC(=O)CCOCCC(=O)N[C@H](C(=O)N3C[C@H](O)C[C@H]3C(=O)NCc3ccc(-c4scnc4C)cc3)C(C)(C)C)n2)c1OC` [CPD-067, 6-(Cyclopropanecarboxamido)-4-((3-(1-(2-(3-(3-(((S)-1-((2S,4R)-4-hydroxy-2-((4-(4-methylthiazol-5-yl)benzyl)carbamoyl)pyrrolidin-1-yl)-3,3-dimethyl-1-oxobutan-2-yl)amino)-3-oxopropoxy)propanamido)ethyl)-1H-1,2,4-triazol-3-yl)-2-methoxyphenyl)amino)-N-methylpyridazine-3-carboxamide], the “TYK2 Degradation (0.5 μM)” value is listed as at most 20% and the “TYK2 Degradation (5 μM)” value is given as at most 20%.

In the case of `CNC(=O)c1nnc(NC(=O)C2CC2)cc1Nc1cccc(-c2ncn(CCNC(=O)COCCOCC(=O)N[C@H](C(=O)N3C[C@H](O)C[C@H]3C(=O)NCc3ccc(-c4scnc4C)cc3)C(C)(C)C)n2)c1OC` [CPD-068, 6-(Cyclopropanecarboxamido)-4-((3-(1-((S)-13-((2S,4R)-4-hydroxy-2-((4-(4-methylthiazol-5-yl)benzyl)carbamoyl)pyrrolidine-1-carbonyl)-14,14-dimethyl-4,11-dioxo-6,9-dioxa-3,12-diazapentadecyl)-1H-1,2,4-triazol-3-yl)-2-methoxyphenyl)amino)-N-methylpyridazine-3-carboxamide], the “TYK2 Degradation (0.5 μM)” value was at most 20% and the “TYK2 Degradation (5 μM)” value is reported as at most 20%.

As to `CNC(=O)c1nnc(NC(=O)C2CC2)cc1Nc1cccc(-c2ncn(CCNC(=O)CCOCCOCCC(=O)N[C@H](C(=O)N3C[C@H](O)C[C@H]3C(=O)NCc3ccc(-c4scnc4C)cc3)C(C)(C)C)n2)c1OC` [CPD-069, 6-(Cyclopropanecarboxamido)-4-((3-(1-((S)-15-((2S,4R)-4-hydroxy-2-((4-(4-methylthiazol-5-yl)benzyl)carbamoyl)pyrrolidine-1-carbonyl)-16,16-dimethyl-4,13-dioxo-7,10-dioxa-3,14-diazaheptadecyl)-1H-1,2,4-triazol-3-yl)-2-methoxyphenyl)amino)-N-methylpyridazine-3-carboxamide], the “TYK2 Degradation (0.5 μM)” value is at most 20% and the “TYK2 Degradation (5 μM)” value is at most 20%.

For `CNC(=O)c1nnc(NC(=O)C2CC2)cc1Nc1cccc(-c2ncn(CCNC(=O)COCCOCCOCC(=O)N[C@H](C(=O)N3C[C@H](O)C[C@H]3C(=O)NCc3ccc(-c4scnc4C)cc3)C(C)(C)C)n2)c1OC` [CPD-070, 6-(Cyclopropanecarboxamido)-4-((3-(1-((S)-16-((2S,4R)-4-hydroxy-2-((4-(4-methylthiazol-5-yl)benzyl)carbamoyl)pyrrolidine-1-carbonyl)-17,17-dimethyl-4,14-dioxo-6,9,12-trioxa-3,15-diazaoctadecyl)-1H-1,2,4-triazol-3-yl)-2-methoxyphenyl)amino)-N-methylpyridazine-3-carboxamide], the “TYK2 Degradation (0.5 μM)” value is reported as at most 20% and the “TYK2 Degradation (5 μM)” value is on record as at most 20%.

Consider `CNC(=O)c1nnc(NC(=O)C2CC2)cc1Nc1cccc(-c2ncn(CCNC(=O)CCOCCOCCOCCC(=O)N[C@H](C(=O)N3C[C@H](O)C[C@H]3C(=O)NCc3ccc(-c4scnc4C)cc3)C(C)(C)C)n2)c1OC` [CPD-071, 6-(Cyclopropanecarboxamido)-4-((3-(1-((5)-18-((2S,4R)-4-hydroxy-2-((4-(4-methylthiazol-5-yl)benzyl)carbamoyl)pyrrolidine-1-carbonyl)-19,19-dimethyl-4,16-dioxo-7,10,13-trioxa-3,17-diazaicosyl)-1H-1,2,4-triazol-3-yl)-2-methoxyphenyl)amino)-N-methylpyridazine-3-carboxamide], for which the “TYK2 Degradation (0.5 μM)” value is at most 20% and the “TYK2 Degradation (5 μM)” value is reported as at most 20%.

As for `CNC(=O)c1nnc(NC(=O)C2CC2)cc1Nc1cccc(-c2ncn(CCNC(=O)CCOCCOCCOCCOCCC(=O)N[C@H](C(=O)N3C[C@H](O)C[C@H]3C(=O)NCc3ccc(-c4scnc4C)cc3)C(C)(C)C)n2)c1OC` [CPD-072, N^1-(2-(3-(3-((6-(Cyclopropanecarboxamido)-3-(methylcarbamoyl)pyridazin-4-yl)amino)-2-methoxyphenyl)-1H-1,2,4-triazol-1-yl)ethyl)-N^16-((S)-1-((2S,4R)-4-hydroxy-2-((4-(4-methylthiazol-5-yl)benzyl)carbamoyl)pyrrolidin-1-yl)-3,3-dimethyl-1-oxobutan-2-yl)-4,7,10,13-tetraoxahexadecanediamide], the “TYK2 Degradation (0.5 μM)” value is at most 20% and the “TYK2 Degradation (5 μM)” value is at most 20%.

The values are drawn from patent US20240059671A1, “TYROSINE KINASE 2 (TYK2) DEGRADATION COMPOUNDS AND METHODS OF USE” (CULLGEN (SHANGHAI), INC., priority 2020, published 2024).
